# Values of other authors in US20070036851A1, “Acid labile drug compositions” (priority 2002, published 2007).
# Conditions: in vitro, water, pH of about 6; colour changes from clear to yellow, then brown, then purple
smiles,measurement,value
COc1ccc2[nH]c([S+]([O-])Cc3ncc(C)c(OC)c3C)nc2c1 (stereo not shown) [omeprazole],stability at acidic pH (drug degradation),quickly cyclizes
